Measured values reported in PubChem BioAssay AID328 (DTP/NCI, 2004).
Values joined by “and” are separate entries in the source; they are usually repeats but may differ in a detail not shown here. Equal entries are not always repeated. Toxic doses and inconclusive results are not listed. The calls were made as follows: active = survival T/C of 150% or more; inactive = T/C below 125% in these data.

Experiments:
[1] = tested on: BDF1 mice, P388 leukemia ip; assay: NCI In Vivo Anticancer Drug Screen. Data for tumor model P388 Leukemia (intraperitoneal) in B6D2F1 (BDF1) mice; details: endpoint: mean survival time, schedule: Q01DX010 (ip), vehicle: carboxymethylcellulose (CMC), higher = longer survival
Summary of the method: (§1)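 Read-out is survival of treated animals expressed relative to the vehicle group, as a T/C ratio.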

[2] = tested on: BDF1 mice, P388 leukemia ip, median survival T/C; assay: as above; details: endpoint: median survival time, higher = longer survival
Summary of the method: as §1

[3] = dose: 12.5 mg/kg/injection, schedule: Q01DX009 (ip), vehicle: saline with Tween-80
[4] = dose: 50.0 mg/kg/injection, schedule: Q01DX009 (ip), vehicle: saline with Tween-80
[5] = dose: 100.0 mg/kg/injection, schedule: Q01DX009 (ip), vehicle: saline with Tween-80
[6] = dose: 200.0 mg/kg/injection, schedule: Q01DX009 (ip), vehicle: saline with Tween-80

Measured: T/C

CC(C)(O)CCC(=O)C(C)(O)C1C(O)CC2(C)C3CC=C4C(CC(O)C(=O)C4(C)C)C3(C)C(=O)CC12C (stereo not given)
inactive: [1]; dose: 1.0 mg/kg/injection 97 % of control | [1]; dose: 2.0 mg/kg/injection 86 % of control | [2]; dose: 1.0 mg/kg/injection, schedule: Q01DX010 (ip), vehicle: carboxymethylcellulose (CMC) 121 % of control | [2]; dose: 2.0 mg/kg/injection, schedule: Q01DX010 (ip), vehicle: carboxymethylcellulose (CMC) 121 % of control | [2]; dose: 4.0 mg/kg/injection, schedule: Q01DX010 (ip), vehicle: carboxymethylcellulose (CMC) 121 % of control

CC(C)=CC(=O)C1C(=O)c2ccccc2C1=O
inactive: [1]; dose: 25.0 mg/kg/injection 93 % of control | [1]; dose: 50.0 mg/kg/injection 101 % of control | [1]; dose: 100.0 mg/kg/injection 101 % of control | [1]; dose: 200.0 mg/kg/injection 96 % of control

S=c1sc(-c2ccc(Cl)cc2)c[se]1
inactive: [2]; dose: 0.78 mg/kg/injection, schedule: Q01DX009 (ip), vehicle: saline with Tween-80 97 % of control | [2]; dose: 1.56 mg/kg/injection, schedule: Q01DX009 (ip), vehicle: saline with Tween-80 109 % of control | [2]; dose: 3.13 mg/kg/injection, schedule: Q01DX009 (ip), vehicle: saline with Tween-80 93 % of control and 100 % of control | [2]; [3] 93 % of control

CCCCN(S(=O)(=O)C(F)(F)F)S(=O)(=O)C(F)(F)F
inactive: [2]; dose: 100.0 mg/kg/injection, schedule: Q01DX009 (ip), vehicle: saline 91 % of control | [2]; dose: 200.0 mg/kg/injection, schedule: Q01DX009 (ip), vehicle: saline 91 % of control | [2]; dose: 400.0 mg/kg/injection, schedule: Q01DX009 (ip), vehicle: saline 100 % of control

CNCc1c2c(O)c3c(O)c(C)c4c(c3c1O)C(=O)C(C)(O/C=C/C(OC)C(C)C(OC(C)=O)C(C)C(O)C(C)C(O)C(C)/C=C/C=C(/C)C(=O)N2)O4 (stereo not given)
inactive: [2]; [4] 100 % of control | [2]; [5] 89 % of control | [2]; [6] 116 % of control

COc1ccccc1NC(N)=O
inactive: [2]; dose: 100.0 mg/kg/injection, schedule: Q04DX003 (ip), vehicle: saline with Tween-80 105 % of control | [2]; dose: 200.0 mg/kg/injection, schedule: Q04DX003 (ip), vehicle: saline with Tween-80 105 % of control | [2]; dose: 400.0 mg/kg/injection, schedule: Q04DX003 (ip), vehicle: saline with Tween-80 100 % of control

CSc1nc([N+](=O)[O-])c2cnccn12
inactive: [2]; dose: 5.0 mg/kg/injection, schedule: Q04DX003 (ip), vehicle: saline with Tween-80 103 % of control | [2]; dose: 6.25 mg/kg/injection, schedule: Q01DX009 (ip), vehicle: saline with Tween-80 97 % of control | [2]; dose: 10.0 mg/kg/injection, schedule: Q04DX003 (ip), vehicle: saline with Tween-80 99 % of control | [2]; [3] 99 % of control | [2]; dose: 12.5 mg/kg/injection, schedule: Q04DX003 (ip), vehicle: saline with Tween-80 101 % of control | [2]; dose: 20.0 mg/kg/injection, schedule: Q04DX003 (ip), vehicle: saline with Tween-80 90 % of control | [2]; dose: 25.0 mg/kg/injection, schedule: Q01DX009 (ip), vehicle: saline with Tween-80 96 % of control | [2]; dose: 25.0 mg/kg/injection, schedule: Q04DX003 (ip), vehicle: saline with Tween-80 92 % of control | [2]; dose: 40.0 mg/kg/injection, schedule: Q04DX003 (ip), vehicle: saline with Tween-80 114 % of control | [2]; dose: 50.0 mg/kg/injection, schedule: Q04DX003 (ip), vehicle: saline with Tween-80 89 % of control

CSC1=NN(c2ccccc2)CN(c2ccccc2)N1C
inactive: [2]; [4] 95 % of control | [2]; [5] 88 % of control | [2]; [6] 108 % of control
